In one assay the target is T1, human GCGR (Homo sapiens, UniProt P47871).
T1 construct: expressed in transfected cells; kept under Blasticidin and Hygromycin selection
The experiment in a line: cAMP activity assay, cells expressing human GCGR. As to conditions: for EC50: cAMP production, cells expressing human GCGR, assay buffer with or without 20% human serum (not stated which), read-out: GCGR EC50 human; for hGCGR/hGLP1R (hTone): ratio of human GCGR EC50 to human GLP1R EC50. Type of assay: cell-based. In outline:
(§1)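 cAMP production in human GLP1R- or GCGR-expressing cells was read by luminescence after overnight dark incubation at room temperature. Peptides were given as 10-point DMSO dilution series, with native GLP-1 and glucagon as references. Four-parameter logistic fitting gave EC50.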

In a further assay the target is T2, human GLP1R (Homo sapiens, UniProt P43220).
T2 construct: expressed in transfected cells; kept under Blasticidin and Hygromycin selection
Nature of the assay: cAMP activity assay, cells expressing human GLP1R. It is filed as cell-based. As to conditions: cAMP production, assay buffer with or without 20% human serum (not stated which). In outline: as §1

Broadly, the EC50 is the midpoint of the concentration-response curve.

Starred links: 1 amine or outer side, 2 acyl side, 3 side chain; linkers in the order of their positions; H or OH if unused. Non-standard residues stand in square brackets, D forms with d. Residues, ends and D or L forms follow the SMILES beside them. Groups on a side chain read outwards from the residue. *: point of attachment. C20 diacid = O=C(O)CCCCCCCCCCCCCCCCCCC(=O)*; Phe(4-CH2NH2) = NCc1ccc(C[C@H](N)C(=O)O)cc1; C18 diacid = O=C(O)CCCCCCCCCCCCCCCCC(=O)*; C16 diacid = O=C(O)CCCCCCCCCCCCCCC(=O)*; γGlu = O=C(O)[C@H](CCC(=O)[*:2])N[*:1]; Met(O2) = CS(=O)(=O)CC[C@H](N)C(=O)O; αMeD = C[C@](N)(CC(=O)O)C(=O)O; AEEA = NCCOCCOCC(=O)O; Aib = CC(C)(N)C(=O)O

T2 sequence (P43220 24-463): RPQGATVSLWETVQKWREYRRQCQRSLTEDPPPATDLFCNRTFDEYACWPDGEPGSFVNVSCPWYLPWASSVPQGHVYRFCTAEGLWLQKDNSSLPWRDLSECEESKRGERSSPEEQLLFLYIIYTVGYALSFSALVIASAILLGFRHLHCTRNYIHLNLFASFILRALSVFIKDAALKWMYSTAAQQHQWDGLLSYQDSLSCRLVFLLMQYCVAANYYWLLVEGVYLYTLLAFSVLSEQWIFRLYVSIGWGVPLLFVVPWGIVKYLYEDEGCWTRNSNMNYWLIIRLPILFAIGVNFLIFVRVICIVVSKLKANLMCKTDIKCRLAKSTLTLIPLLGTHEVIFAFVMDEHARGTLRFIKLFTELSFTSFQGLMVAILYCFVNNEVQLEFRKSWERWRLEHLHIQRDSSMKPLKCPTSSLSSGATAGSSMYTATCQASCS
T1 sequence (P47871 26-477): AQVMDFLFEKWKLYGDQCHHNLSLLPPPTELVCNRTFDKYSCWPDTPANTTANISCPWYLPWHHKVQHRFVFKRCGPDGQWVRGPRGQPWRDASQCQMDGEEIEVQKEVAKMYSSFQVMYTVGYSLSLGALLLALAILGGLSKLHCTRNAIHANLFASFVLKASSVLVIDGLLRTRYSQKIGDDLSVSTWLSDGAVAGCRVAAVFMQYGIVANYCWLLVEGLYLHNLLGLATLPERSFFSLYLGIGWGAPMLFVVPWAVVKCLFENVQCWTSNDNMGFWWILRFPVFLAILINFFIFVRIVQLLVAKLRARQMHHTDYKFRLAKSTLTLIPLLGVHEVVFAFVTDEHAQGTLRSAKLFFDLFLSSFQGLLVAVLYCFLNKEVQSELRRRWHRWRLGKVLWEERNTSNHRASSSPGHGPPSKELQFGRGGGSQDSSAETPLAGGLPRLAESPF

For the molecule `CC(C)C[C@H](NC(=O)[C@H](Cc1ccc(O)cc1)NC(=O)[C@H](CCCCN)NC(=O)[C@H](CO)NC(=O)[C@H](Cc1ccc(O)cc1)NC(=O)[C@H](CC(=O)O)NC(=O)[C@H](CO)NC(=O)[C@@H](NC(=O)[C@H](Cc1ccccc1)NC(=O)[C@@H](NC(=O)CNC(=O)[C@H](CCC(N)=O)NC(=O)C(C)(C)NC(=O)[C@@H](N)Cc1c[nH]cn1)[C@@H](C)O)[C@@H](C)O)C(=O)N[C@@H](CC(=O)O)C(=O)N[C@@H](C)C(=O)N[C@@H](CCCNC(=N)N)C(=O)N[C@@H](C)C(=O)N[C@@H](C)C(=O)N[C@@H](CCCCNC(=O)COCCOCCNC(=O)COCCOCCNC(=O)CC[C@H](NC(=O)CCCCCCCCCCCCCCCCC(=O)O)C(=O)O)C(=O)N[C@@H](CC(=O)O)C(=O)N[C@@H](Cc1ccccc1)C(=O)N[C@H](C(=O)N[C@@H](CCC(N)=O)C(=O)N[C@@H](Cc1c[nH]c2ccccc12)C(=O)N[C@@H](CC(C)C)C(=O)N[C@@H](CCS(C)(=O)=O)C(=O)N[C@@](C)(CC(=O)O)C(=O)N[C@H](C(N)=O)[C@@H](C)O)C(C)C` [compound 33] (H-H[Aib]QGTFTSDYSKYLDARAAK([AEEA-AEEA-γGlu-C18 diacid])DFVQWL[Met(O2)][αMeD]T-NH2), on human GCGR, the EC50 amounted to 0.3 nM and the “hGCGR/hGLP1R (hTone)” value stood at 4.00. Also, the EC50 on human GLP1R is 0.07 nM.
On to `CC(C)C[C@H](NC(=O)[C@H](Cc1ccc(O)cc1)NC(=O)[C@H](CCCCN)NC(=O)[C@H](CO)NC(=O)[C@H](Cc1ccc(O)cc1)NC(=O)[C@H](CC(=O)O)NC(=O)[C@H](CO)NC(=O)[C@@H](NC(=O)[C@H](Cc1ccccc1)NC(=O)[C@@H](NC(=O)CNC(=O)[C@H](CCC(N)=O)NC(=O)C(C)(C)NC(=O)[C@@H](N)Cc1c[nH]cn1)[C@@H](C)O)[C@@H](C)O)C(=O)N[C@@H](CC(=O)O)C(=O)N[C@@H](C)C(=O)N[C@@H](CCCNC(=N)N)C(=O)N[C@@H](C)C(=O)N[C@@H](C)C(=O)N[C@@H](CCCCNC(=O)COCCOCCNC(=O)COCCOCCNC(=O)CC[C@H](NC(=O)CCCCCCCCCCCCCCC(=O)O)C(=O)O)C(=O)N[C@@H](CC(=O)O)C(=O)N[C@@H](Cc1ccccc1)C(=O)N[C@H](C(=O)N[C@@H](CCC(N)=O)C(=O)N[C@@H](Cc1c[nH]c2ccccc12)C(=O)N[C@@H](CC(C)C)C(=O)N[C@@H](CC(C)C)C(=O)N[C@@H](CC(=O)O)C(=O)N[C@H](C(N)=O)[C@@H](C)O)C(C)C` [compound 17] (H-H[Aib]QGTFTSDYSKYLDARAAK([AEEA-AEEA-γGlu-C16 diacid])DFVQWLLDT-NH2), for which, at human GCGR, the EC50 is 0.14 nM and the “hGCGR/hGLP1R (hTone)” value stood at 1.44. Moreover, at human GLP1R, the EC50 was 0.1 nM.
Take `CC(C)C[C@H](NC(=O)[C@H](Cc1ccc(O)cc1)NC(=O)[C@H](CCCCN)NC(=O)[C@H](CO)NC(=O)[C@H](Cc1ccc(O)cc1)NC(=O)[C@H](CC(=O)O)NC(=O)[C@H](CO)NC(=O)[C@@H](NC(=O)[C@H](Cc1ccccc1)NC(=O)[C@@H](NC(=O)CNC(=O)[C@H](CCC(N)=O)NC(=O)C(C)(C)NC(=O)[C@@H](N)Cc1c[nH]cn1)[C@@H](C)O)[C@@H](C)O)C(=O)N[C@@H](CC(=O)O)C(=O)N[C@@H](CCC(=O)O)C(=O)N[C@@H](CCCNC(=N)N)C(=O)N[C@@H](C)C(=O)N[C@@H](C)C(=O)N[C@@H](Cc1ccc(CNC(=O)COCCOCCNC(=O)COCCOCCNC(=O)CC[C@H](NC(=O)CCCCCCCCCCCCCCC(=O)O)C(=O)O)cc1)C(=O)N[C@@H](CC(=O)O)C(=O)N[C@@H](Cc1ccccc1)C(=O)N[C@H](C(=O)N[C@@H](CCC(N)=O)C(=O)N[C@@H](Cc1c[nH]c2ccccc12)C(=O)N[C@@H](CC(C)C)C(=O)N[C@@H](CC(C)C)C(=O)N[C@@H](CCCCN)C(=O)N[C@H](C(N)=O)[C@@H](C)O)C(C)C` [compound 26] (H-H[Aib]QGTFTSDYSKYLDERAA[Phe(4-CH2NH2)]([AEEA-AEEA-γGlu-C16 diacid])DFVQWLLKT-NH2): the results for the EC50 on human GCGR and on human GLP1R were 0.52 nM and 0.11 nM, respectively. For the same molecule, the “hGCGR/hGLP1R (hTone)” value at human GCGR is reported as 4.68.
Turning to `CC(C)C[C@H](NC(=O)[C@H](Cc1ccc(O)cc1)NC(=O)[C@H](CCCCN)NC(=O)[C@H](CO)NC(=O)[C@H](Cc1ccc(O)cc1)NC(=O)[C@H](CC(=O)O)NC(=O)[C@H](CO)NC(=O)[C@@H](NC(=O)[C@H](Cc1ccccc1)NC(=O)[C@@H](NC(=O)CNC(=O)[C@H](CCC(N)=O)NC(=O)C(C)(C)NC(=O)[C@@H](N)Cc1c[nH]cn1)[C@@H](C)O)[C@@H](C)O)C(=O)N[C@@H](CC(=O)O)C(=O)N[C@@H](C)C(=O)N[C@@H](CCCNC(=N)N)C(=O)N[C@@H](C)C(=O)N[C@@H](C)C(=O)N[C@@H](CCC(N)=O)C(=O)N[C@@H](CCCCNC(=O)COCCOCCNC(=O)COCCOCCNC(=O)CC[C@H](NC(=O)CCCCCCCCCCCCCCCCCCC(=O)O)C(=O)O)C(=O)N[C@@H](Cc1ccccc1)C(=O)N[C@H](C(=O)N[C@@H](CCC(N)=O)C(=O)N[C@@H](Cc1c[nH]c2ccccc12)C(=O)N[C@@H](CC(C)C)C(=O)N[C@@H](CCS(C)(=O)=O)C(=O)N[C@@H](CC(=O)O)C(=O)N[C@H](C(N)=O)[C@@H](C)O)C(C)C` [compound 44] (H-H[Aib]QGTFTSDYSKYLDARAAQK([AEEA-AEEA-γGlu-C20 diacid])FVQWL[Met(O2)]DT-NH2; N-terminus assumed), the values for the EC50 at human GCGR and at human GLP1R were 0.22 nM and 0.24 nM, respectively. In addition, the “hGCGR/hGLP1R (hTone)” value on human GCGR amounted to 0.92.
Regarding `CC(C)C[C@H](NC(=O)[C@H](CC(C)C)NC(=O)[C@H](Cc1c[nH]c2ccccc12)NC(=O)[C@H](CCC(N)=O)NC(=O)[C@@H](NC(=O)[C@H](Cc1ccccc1)NC(=O)[C@H](CCCCNC(=O)COCCOCCNC(=O)COCCOCCNC(=O)CC[C@H](NC(=O)CCCCCCCCCCCCCCC(=O)O)C(=O)O)NC(=O)[C@H](CCC(N)=O)NC(=O)[C@H](C)NC(=O)[C@H](C)NC(=O)[C@H](CCCNC(=N)N)NC(=O)C(C)(C)NC(=O)[C@H](CC(=O)O)NC(=O)[C@H](CC(C)C)NC(=O)[C@H](Cc1ccc(O)cc1)NC(=O)[C@H](CCCCN)NC(=O)[C@H](CO)NC(=O)[C@H](Cc1ccc(O)cc1)NC(=O)[C@H](CC(=O)O)NC(=O)[C@H](CO)NC(=O)[C@@H](NC(=O)[C@H](Cc1ccccc1)NC(=O)[C@@H](NC(=O)CNC(=O)[C@H](CCC(N)=O)NC(=O)[C@@H](CO)NC(=O)[C@@H](N)Cc1c[nH]cn1)[C@@H](C)O)[C@@H](C)O)C(C)C)C(=O)N[C@@H](C)C(=O)N[C@H](C(=O)N[C@@H](CCCCNC(=O)CC[C@H](N)C(=O)O)C(N)=O)[C@@H](C)O` [compound 1] (H-H[dS]QGTFTSDYSKYLD[Aib]RAAQK([AEEA-AEEA-γGlu-C16 diacid])FVQWLLATK(γGlu)-NH2), on human GCGR, the EC50 turned out to be 0.16 nM and the “hGCGR/hGLP1R (hTone)” value was 0.09. The EC50 at human GLP1R was 1.89 nM.

(Values after US11492385B2, “Long-acting co-agonists of the glucagon and GLP-1 receptors” (Merck Sharp & Dohme Corp., priority 2015, dated 2022).)
